From ChEMBL document CHEMBL1201862, “PubChem BioAssay data set” (2004)
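Results reflect a 48-hour exposure of cells in 96-well plates to compound at five concentrations. GI50 marks 50% less growth.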 The source made the active and inactive calls. Rule as the data show it: active = GI50 up to about 1.1 µM and inactive = higher.

Legend:
Assay in all cases: DTP human tumour cell line panel, 48 h
[1] = system: M14
[2] = system: HCT-15
[3] = system: HL-60
[4] = system: SF-295
[5] = system: A498
[6] = system: CCRF-CEM
[7] = system: SF-268
[8] = system: MDA-MB-231
[9] = system: UACC-257
[10] = system: EKVX
[11] = system: SK-OV-3
[12] = system: 786-0
[13] = system: A549
[14] = system: NCI-H226
[15] = system: SF-539
[16] = system: OVCAR-8
[17] = system: PC-3
[18] = system: SW-620
[19] = system: SK-MEL-28
[20] = system: HOP-92

SMILES	GI50 [1]	GI50 [2]	GI50 [3]	GI50 [4]	GI50 [5]	GI50 [6]	GI50 [7]	GI50 [8]	GI50 [9]	GI50 [10]	GI50 [11]	GI50 [12]	GI50 [13]	GI50 [14]	GI50 [15]	GI50 [16]	GI50 [17]	GI50 [18]	GI50 [19]	GI50 [20]
CC(O)CC(O)(C(F)(F)F)C(F)(F)F (configuration not stated)	> 10 µM (inactive)	> 10 µM	> 10 µM (inactive)	> 10 µM (inactive)	> 10 µM (inactive)	> 10 µM (inactive)	> 10 µM (inactive)	> 10 µM (inactive)	> 10 µM (inactive)	> 10 µM (inactive)	> 10 µM (inactive)	> 10 µM (inactive)	> 10 µM (inactive)	> 10 µM (inactive)	> 10 µM (inactive)	> 10 µM (inactive)	> 10 µM (inactive)	> 10 µM (inactive)	> 10 µM (inactive)	–
CC1OC2OC3C(OCC(O)C3O)OC(=O)[C@]34CCC(C)(C)CC3C3=CCC5[C@@]6(C)C[C@H](O)[C@H](OC7OC(CO)C(O)C(O)C7OC7OCC(OC(=O)CC(C)(O)CC(=O)OC1C(OC1OC(CO)C(O)C(O)C1O)C2O)C(O)C7O)[C@@](C)(CO)C6CC[C@@]5(C)[C@]3(C)CC4 (some centres not stated)	3.41 µM (inactive)	12 µM	1.8 µM (inactive)	4.06 µM (inactive)	–	12.3 µM (inactive)	10.8 µM (inactive)	10.9 µM (inactive)	3.48 µM (inactive)	–	12.4 µM (inactive)	4.83 µM (inactive)	3.85 µM (inactive)	17.2 µM (inactive)	13.5 µM (inactive)	12.3 µM (inactive)	7.91 µM (inactive)	9.35 µM (inactive)	1.97 µM (inactive)	10.3 µM (inactive)
Cc1cccc(-c2cc(O)c3c(C)ccnc3n2)c1	0.291 µM (active)	0.261 µM	0.166 µM (active)	0.346 µM (active)	0.791 µM (active)	0.583 µM (active)	10 µM (inactive)	0.745 µM (active)	–	0.935 µM (active)	0.53 µM (active)	0.564 µM (active)	0.71 µM (active)	0.495 µM (active)	0.456 µM (active)	0.718 µM (active)	0.371 µM (active)	0.169 µM (active)	> 61.1 µM (inactive)	–
O=C(O)c1ccc2c(c1)CC1(C2)Cc2ccccc2C1=O (configuration not stated)	51.8 µM (inactive)	> 100 µM	> 100 µM (inactive)	> 100 µM (inactive)	–	> 100 µM (inactive)	> 100 µM (inactive)	> 100 µM (inactive)	> 100 µM (inactive)	> 100 µM (inactive)	> 100 µM (inactive)	> 100 µM (inactive)	> 100 µM (inactive)	> 100 µM (inactive)	> 100 µM (inactive)	> 100 µM (inactive)	> 100 µM (inactive)	> 100 µM (inactive)	> 100 µM (inactive)	25.2 µM (inactive)
CC(C)(CC#N)c1cc(CC(C)(C)c2cc(CC(C)(C)c3cc(C(C)(C)C4(C)OCCO4)no3)no2)no1	> 100 µM (inactive)	94.2 µM	–	31 µM (inactive)	28.9 µM (inactive)	45.8 µM (inactive)	39.4 µM (inactive)	22.4 µM (inactive)	67.6 µM (inactive)	33 µM (inactive)	27.1 µM (inactive)	17 µM (inactive)	> 100 µM (inactive)	36.4 µM (inactive)	–	51.9 µM (inactive)	39.7 µM (inactive)	> 100 µM (inactive)	> 100 µM (inactive)	–
O=C(CNc1ccccc1[N+](=O)[O-])Nn1cnc2ccc(S(=O)(=O)Nc3ccccc3[N+](=O)[O-])cc2c1=O	> 100 µM (inactive)	> 100 µM	> 100 µM (inactive)	> 100 µM (inactive)	–	> 100 µM (inactive)	> 100 µM (inactive)	> 100 µM (inactive)	> 100 µM (inactive)	> 100 µM (inactive)	> 100 µM (inactive)	> 100 µM (inactive)	> 100 µM (inactive)	> 100 µM (inactive)	> 100 µM (inactive)	> 100 µM (inactive)	> 100 µM (inactive)	> 100 µM (inactive)	> 100 µM (inactive)	> 100 µM (inactive)
CC(C)OP(=O)(OC(C)C)C(C(C)C)N(C)/C(N)=N\C1=NC(C(F)(F)F)(C(F)(F)F)N=C(C(C(F)(F)F)C(F)(F)F)O1 (configuration not stated)	1.41 µM (inactive)	3.75 µM	1.12 µM (inactive)	3.66 µM (inactive)	5.2 µM (inactive)	0.664 µM (active)	2.62 µM (inactive)	1.99 µM (inactive)	3.05 µM (inactive)	3.66 µM (inactive)	5.4 µM (inactive)	3.7 µM (inactive)	2.88 µM (inactive)	2.11 µM (inactive)	3.75 µM (inactive)	1.99 µM (inactive)	2.56 µM (inactive)	2.28 µM (inactive)	3.18 µM (inactive)	–
N#Cc1c(-c2ccc(Cl)cc2)c2c(n(C3OC(CO)C(O)C(O)C3O)c1=S)CCC2 (configuration not stated)	22.6 µM (inactive)	36.6 µM	> 100 µM (inactive)	> 10 µM (inactive)	–	16.1 µM (inactive)	29 µM (inactive)	36.9 µM (inactive)	33.4 µM (inactive)	–	39.5 µM (inactive)	30.9 µM (inactive)	31.7 µM (inactive)	–	19.2 µM (inactive)	–	28.4 µM (inactive)	20.4 µM (inactive)	17.8 µM (inactive)	24.3 µM (inactive)
Nc1ccc2c(c1)nc1n2C(c2c(F)cccc2F)SC1 (configuration not stated)	> 100 µM (inactive)	> 100 µM	48.5 µM (inactive)	> 100 µM (inactive)	> 100 µM (inactive)	61.2 µM (inactive)	> 100 µM (inactive)	> 100 µM (inactive)	> 100 µM (inactive)	> 100 µM (inactive)	> 100 µM (inactive)	> 100 µM (inactive)	> 100 µM (inactive)	–	> 100 µM (inactive)	> 100 µM (inactive)	> 100 µM (inactive)	> 100 µM (inactive)	> 100 µM (inactive)	–
S=c1[nH]c(Cl)cc2nc(Cl)cn12	4.24 µM (inactive)	4.68 µM	–	2.88 µM (inactive)	14.4 µM (inactive)	2.52 µM (inactive)	5.11 µM (inactive)	5.43 µM (inactive)	> 100 µM (inactive)	2.25 µM (inactive)	2.93 µM (inactive)	3.72 µM (inactive)	20.2 µM (inactive)	15 µM (inactive)	2.2 µM (inactive)	4.74 µM (inactive)	3.94 µM (inactive)	6.68 µM (inactive)	8.2 µM (inactive)	17.5 µM (inactive)
CC(=O)OCC1OC(c2nc3ccccc3s2)=CC(OC(C)=O)C1OC(C)=O (configuration not stated)	–	–	22.3 µM (inactive)	> 100 µM (inactive)	> 100 µM (inactive)	> 100 µM (inactive)	43.6 µM (inactive)	> 100 µM (inactive)	> 100 µM (inactive)	> 100 µM (inactive)	–	> 100 µM (inactive)	> 100 µM (inactive)	> 100 µM (inactive)	> 100 µM (inactive)	> 100 µM (inactive)	> 100 µM (inactive)	> 100 µM (inactive)	> 100 µM (inactive)	–
COC(=O)c1cc(C#N)[nH]c1-c1ccc(C)s1	> 100 µM (inactive)	41.6 µM	–	38.8 µM (inactive)	26.9 µM (inactive)	53 µM (inactive)	42.2 µM (inactive)	38.6 µM (inactive)	64.7 µM (inactive)	19.5 µM (inactive)	55.5 µM (inactive)	98.2 µM (inactive)	46.2 µM (inactive)	37.6 µM (inactive)	> 100 µM (inactive)	59.3 µM (inactive)	8.39 µM (inactive)	43.9 µM (inactive)	56.4 µM (inactive)	30.2 µM (inactive)
CN1CCN(C2=NCCO2)CC1	> 100 µM (inactive)	> 100 µM	> 100 µM (inactive)	> 100 µM (inactive)	> 100 µM (inactive)	> 100 µM (inactive)	> 100 µM (inactive)	> 100 µM (inactive)	> 100 µM (inactive)	> 100 µM (inactive)	> 100 µM (inactive)	> 100 µM (inactive)	> 100 µM (inactive)	> 100 µM (inactive)	> 100 µM (inactive)	> 100 µM (inactive)	> 100 µM (inactive)	> 100 µM (inactive)	> 100 µM (inactive)	–
CN(C)c1cc[n+](-c2nc([N-]C(=O)C(F)(F)F)nc3c2ncn3C2CC(O)C(CO)O2)cc1 (configuration not stated)	> 100 µM (inactive)	> 100 µM	> 100 µM (inactive)	> 100 µM (inactive)	> 100 µM (inactive)	> 100 µM (inactive)	> 100 µM (inactive)	> 100 µM (inactive)	–	> 100 µM (inactive)	> 100 µM (inactive)	> 100 µM (inactive)	> 100 µM (inactive)	> 100 µM (inactive)	> 100 µM (inactive)	> 100 µM (inactive)	> 100 µM (inactive)	> 100 µM (inactive)	> 100 µM (inactive)	–
O=C1C2CC=CCC2C(=O)N1n1c(Cc2ccccc2)n[nH]c1=O (configuration not stated)	> 100 µM (inactive)	> 100 µM	–	> 100 µM (inactive)	> 100 µM (inactive)	> 100 µM (inactive)	> 100 µM (inactive)	> 100 µM (inactive)	> 100 µM (inactive)	> 100 µM (inactive)	> 100 µM (inactive)	> 100 µM (inactive)	> 100 µM (inactive)	> 100 µM (inactive)	> 100 µM (inactive)	> 100 µM (inactive)	> 100 µM (inactive)	> 100 µM (inactive)	–	> 100 µM (inactive)
